Values quoted from earlier work in patent US20230172904A1, “COMBINATION OF AN ANTIALLERGIC AGENT WITH MUSCARINIC ANTAGONIST AND/OR DOPAMINERGIC AGONIST FOR USE IN PREVENTING/STOPPING OF AXIAL MYOPIA IN HUMAN” (priority 2016, published 2023).

Experiments:
axial myopia [1] = test system: axial myopia
axial myopia [2] = conditions: one drop of 1% Atropine collyrium at bedtime, chinese children, placebo controlled

SMILES: CN1[C@@H]2CC[C@H]1C[C@@H](OC(=O)C(CO)c1ccccc1)C2 (stereo partly drawn) [Atropine]
- effect on myopia at reduced doses (axial myopia [1]; dose reduced to 0.1%, 0.05% and 0.01%, children): dose dependent effect of atropine that is still acceptable at the lower concentration
- subjects who developed ocular redness and itching (axial myopia [1]; pediatric population, allergic response of the conjunctiva): around 5%
- subjects in whom the development of axial myopia was halted (stopping the elongation of the bulb) (axial myopia [2]): 90%
